Target: pa-FPR (Pseudomonas aeruginosa, UniProt Q9HYK7)
Test: 1H-15N HSQC NMR titration, […] fit
Assay type: binding

Sequence of pa-FPR (Q9HYK7 whole entry): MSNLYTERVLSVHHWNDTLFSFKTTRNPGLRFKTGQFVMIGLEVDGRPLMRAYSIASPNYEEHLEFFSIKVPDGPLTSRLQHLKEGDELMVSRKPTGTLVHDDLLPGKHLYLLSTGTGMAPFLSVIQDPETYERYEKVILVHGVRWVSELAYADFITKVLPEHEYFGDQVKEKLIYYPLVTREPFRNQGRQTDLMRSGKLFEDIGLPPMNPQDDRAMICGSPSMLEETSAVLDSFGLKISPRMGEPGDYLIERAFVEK

SMILES: NC(=O)c1ccc[n+]([C@@H]2O[C@H](COP(=O)(O)OP(=O)(O)OC[C@H]3O[C@@H](n4cnc5c(N)ncnc54)[C@H](OP(=O)(O)O)[C@@H]3O)[C@@H](O)[C@H]2O)c1 [NADP^+]
- Kd: 24 µM

Reference: PMC2792877 (Biochemistry, 2008)
